Reference: ChEMBL document CHEMBL1153745, “The Caulerpa pigment caulerpin inhibits HIF-1 activation and mitochondrial respiration” (J Nat Prod, 2009)
Calls of active or inactive are those of the source. The rule behind the calls is not given here.

Assays:
MDA-MB-231 [1] = experiment: Inhibition of cell migration in human MDA-MB-231 cells under normoxic conditions after 22 hrs by wound-healing assay; format: functional, cell-based
HUVEC [2] = experiment: Antiangiogenic activity in human HUVEC cells assessed as decrease in tube length up to 30 uM after 18 hrs by Matrigel based tube formation assay; format: functional, cell-based
T47D [3] = experiment: Inhibition of hypoxia-induced nuclear HIF1alpha accumulation in human T47D cells at 10 uM after 4 hrs by Western blot analysis; format: functional, cell-based
MCF7 = experiment: Growth inhibition of human MCF7 cells at 1 uM to 30 uM after 48 hrs by sulforhodamine B assay; format: functional, cell-based
T47D [4] = experiment: Inhibition of electron transport protein complex 3 in human T47D cells assessed as decrease in oxygen consumption at 30 uM pretreated for 2 hrs before succinate addition by mitochondrial respiration assay; format: cell-based
PC-3 = experiment: Growth inhibition of human PC3 cells at 30 uM after 48 hrs by sulforhodamine B assay; format: functional; conditions: PC-3, 48 h, read-out: GI
DU-145 = experiment: Growth inhibition of human DU145 cells at 1 uM to 30 uM after 48 hrs by sulforhodamine B assay; format: functional, cell-based
T47D [5] = experiment: Inhibition of electron transport protein complex 4 in human T47D cells assessed as decrease in oxygen consumption at 30 uM pretreated for 2 hrs before TMPD/ascorbate addition by mitochondrial respiration assay; format: cell-based
T47D [6] = experiment: Inhibition of electron transport protein complex 1 in digitonin-permeabilized human T47D cells assessed as decrease in oxygen consumption at 30 uM by mitochondrial respiration assay; format: cell-based
T47D [7] = experiment: Inhibition of hypoxia-induced GLUT1 mRNA expression in human T47D cells at 10 uM after 16 hrs by RT-PCR; format: functional, cell-based
T47D [8] = experiment: Inhibition of hypoxia-induced GLUT1 mRNA expression in human T47D cells at 30 uM after 16 hrs by RT-PCR; format: functional, cell-based
T47D [9] = experiment: Inhibition of 1,10-phenanthroline-induced GLUT1 mRNA expression in human T47D cells at 30 uM after 16 hrs by RT-PCR; format: functional, cell-based
HUVEC [10] = experiment: Antiangiogenic activity in human HUVEC cells assessed as inhibition of normoxic T47D cell-conditioned media-induced tube formation at 30 uM after 18 hrs by Matrigel based tube formation assay; format: functional
MDA-MB-231 [11] = experiment: Cytotoxicity against human MDA-MB-231 cells under hypoxic conditions up to 30 uM after 22 hrs by neutral red method; format: cell-based; conditions: mda-mb-231, 22 h
T47D [12] = experiment: Inhibition of hypoxia-induced secreted VEGF protein level in human T47D cells at 10 uM after 16 hrs by ELISA; format: functional, cell-based
[13] = Growth inhibition of human HMEC cells up to 30 uM after 48 hrs by sulforhodamine B assay; format: cell-based; conditions: read-out: GI
T47D [14] = experiment: Inhibition of electron transport protein complex 1 in human T47D cells assessed as reduction of oxygen consumption at 30 uM; format: cell-based
T47D [15] = experiment: Inhibition of hypoxia-induced nuclear HIF1beta accumulation in human T47D cells at 10 uM after 4 hrs by Western blot analysis; format: functional, cell-based
T47D [16] = experiment: Inhibition of 1,10-phenanthroline-induced VEGF mRNA expression in human T47D cells at 30 uM after 16 hrs by RT-PCR; format: functional, cell-based
T47D [17] = experiment: Inhibition of electron transport protein complex 1 in human T47D cells assessed as decrease in oxygen consumption at 30 uM pretreated for 2 hrs before malate and pyruvate addition by mitochondrial respiration assay; format: cell-based
[18] = biological target: T1, Hypoxia inducible factors; HIF-1-alpha, HIF-2-alpha (Homo sapiens) (UniProt Q16665+Q99814); experiment: Inhibition of hypoxia-induced HIF1 activation in human T47D cells at 1 uM after 16 hrs by pTK-HRE3-luciferase reporter gene assay; format: cell-based
T47D [19] = experiment: Inhibition of cellular respiration in human T47D cells assessed as oxygen consumption; format: functional, cell-based
T47D [20] = experiment: Growth inhibition of human T47D cells at 1 uM to 30 uM after 48 hrs by sulforhodamine B assay; format: functional, cell-based
[21] = biological target: T1, Hypoxia inducible factors; HIF-1-alpha, HIF-2-alpha (Homo sapiens); experiment: Inhibition of 1,10-phenanthroline-induced HIF1 activation in human T47D cells at 1 uM after 16 hrs by pTK-HRE3-luciferase reporter gene assay; format: cell-based
T47D [22] = experiment: Inhibition of electron transport protein complex 1 in human T47D cells assessed as reduction of oxygen consumption at 10 uM; format: cell-based
MDA-MB-231 [23] = experiment: Growth inhibition of human MDA-MB-231 cells at 1 uM to 30 uM after 48 hrs by sulforhodamine B assay; format: functional, cell-based
T47D [24] = experiment: Inhibition of 1,10-phenanthroline-induced nuclear HIF1alpha accumulation in human T47D cells at 10 uM after 4 hrs by Western blot analysis; format: functional, cell-based
[25] = biological target: T1, Hypoxia inducible factors; HIF-1-alpha, HIF-2-alpha (Homo sapiens); experiment: Inhibition of 1,10-phenanthroline-induced HIF1 activation in human T47D cells after 16 hrs by pTK-HRE3-luciferase reporter gene assay; format: cell-based
T47D [26] = experiment: Effect on luciferase expression in hypoxia-stimulated human T47D cells expressing pGL3 construct at 30 uM after 16 hrs by reporter gene assay; format: functional
T47D [27] = experiment: Cytotoxicity against human T47D cells under hypoxic conditions at 30 uM after 16 hrs; format: cell-based
HUVEC [28] = experiment: Antiangiogenic activity in human HUVEC cells assessed as inhibition of hypoxic T47D cell-conditioned media-induced tube formation at 10 uM after 18 hrs by Matrigel based tube formation assay; format: functional
HUVEC [29] = experiment: Antiangiogenic activity in human HUVEC cells assessed as decrease in branch point number up to 30 uM after 18 hrs by Matrigel based tube formation assay; format: functional, cell-based
HUVEC [30] = experiment: Antiangiogenic activity in human HUVEC cells assessed as inhibition of hypoxic T47D cell-conditioned media-induced tube formation at 30 uM after 18 hrs by Matrigel based tube formation assay; format: functional
MDA-MB-231 [31] = experiment: Cytotoxicity against human MDA-MB-231 cells up to 30 uM after 22 hrs by neutral red method; format: cell-based; conditions: mda-mb-231, 22 h
T47D [32] = experiment: Inhibition of electron transport protein complex 1 in digitonin-induced permeable human T47D cells assessed as reduction of oxygen consumption at 30 uM relative to control; format: cell-based
T47D [33] = experiment: Inhibition of hypoxia-induced VEGF mRNA expression in human T47D cells at 10 uM after 16 hrs by RT-PCR; format: functional, cell-based
MDA-MB-231 [34] = experiment: Inhibition of cell migration in human MDA-MB-231 cells under hypoxic conditions after 22 hrs by wound-healing assay; format: functional, cell-based
T47D [35] = experiment: Inhibition of electron transport protein complex 2 in human T47D cells assessed as decrease in oxygen consumption at 30 uM pretreated for 2 hrs before succinate addition by mitochondrial respiration assay; format: cell-based
T47D [36] = experiment: Inhibition of electron transport protein complex 1 in human T47D cells assessed as reduction of oxygen consumption at 30 uM pretreated for 2 hrs relative to untreated control; format: cell-based
T47D [37] = experiment: Inhibition of secreted VEGF protein level in human T47D cells under normoxic conditions at 10 uM after 16 hrs by ELISA; format: functional, cell-based
T47D [38] = experiment: Inhibition of hypoxia-induced VEGF mRNA expression in human T47D cells at 30 uM after 16 hrs by RT-PCR; format: functional, cell-based

Q: With `COC(=O)/C1=C/c2c([nH]c3ccccc23)/C(C(=O)OC)=C\c2c1[nH]c1ccccc21` [CAULERPIN] as the compound, how does the Activity (MDA-MB-231 [1]) read?
A: Dose-dependent effect

Q: And the Activity (HUVEC [2])?
A: Active

Q: And the Activity (T47D [3])?
A: Active

Q: And the Activity (MCF7)?
A: Active

Q: What about the Activity (T47D [4]) of the same compound?
A: inactive

Q: What about the inhibition of growth at 30 µM (PC-3) of the same compound?
A: 52%

Q: What about the Activity (DU-145) of the same compound?
A: inactive

Q: What about the Activity (T47D [5]) of the same compound?
A: inactive

Q: What about the Activity (T47D [6]) of the same compound?
A: Active

Q: What about the Activity (T47D [7]) of the same compound?
A: inactive

Q: And the Activity (T47D [8])?
A: Active

Q: What about the Activity (T47D [9]) of the same compound?
A: inactive

Q: What about the Activity (HUVEC [10]) of the same compound?
A: inactive

Q: And the Activity (MDA-MB-231 [11])?
A: 15%

Q: What about the Activity (T47D [12]) of the same compound?
A: Active

Q: And the inhibition at 48 h [13]?
A: < 25%

Q: And the inhibition (T47D [14])?
A: 30%

Q: And the Activity (T47D [15])?
A: inactive

Q: What about the Activity (T47D [16]) of the same compound?
A: inactive

Q: And the Activity (T47D [17])?
A: Active

Q: And the Activity [18]?
A: Active

Q: And the Activity (T47D [19])?
A: Dose-dependent effect

Q: What about the Activity (T47D [20]) of the same compound?
A: Active

Q: And the Activity [21]?
A: Active

Q: What about the Activity (T47D [22]) of the same compound?
A: inactive

Q: What about the Activity (MDA-MB-231 [23]) of the same compound?
A: Active

Q: And the Activity (T47D [24])?
A: inactive

Q: And the Activity [25]?
A: Dose-dependent effect

Q: What about the Activity (T47D [26]) of the same compound?
A: <=10%

Q: What about the Activity (T47D [27]) of the same compound?
A: <= 10%

Q: What about the Activity (HUVEC [28]) of the same compound?
A: Active

Q: And the Activity (HUVEC [29])?
A: Active

Q: What about the Activity (HUVEC [30]) of the same compound?
A: Active

Q: And the Activity (MDA-MB-231 [31])?
A: 15%

Q: What about the inhibition (T47D [32]) of the same compound?
A: 57%

Q: And the Activity (T47D [33])?
A: inactive

Q: And the Activity (MDA-MB-231 [34])?
A: Dose-dependent effect

Q: What about the Activity (T47D [35]) of the same compound?
A: inactive

Q: What about the inhibition (T47D [36]) of the same compound?
A: 87%

Q: And the Activity (T47D [37])?
A: inactive

Q: What about the Activity (T47D [38]) of the same compound?
A: Active
